From patent publication US12595269B2, “Morpholine-like monoamine releasers” (Solvonis Therapeutics Ireland Holdings Limited, priority 2022, dated 2026)
Where two headings read alike, the source gives them in different places.

Tests used:
[1] = biological target: T1, human 5-HT2A receptor (Homo sapiens, UniProt P28223); assay: Intracellular calcium response (FLIPR) in CHO cells expressing human 5-HT2A receptor, agonist and antagonist modes; type: cell-based
T1 construct: expressed in transfected cells; host or cells: CHO
T1 sequence (P28223 whole entry): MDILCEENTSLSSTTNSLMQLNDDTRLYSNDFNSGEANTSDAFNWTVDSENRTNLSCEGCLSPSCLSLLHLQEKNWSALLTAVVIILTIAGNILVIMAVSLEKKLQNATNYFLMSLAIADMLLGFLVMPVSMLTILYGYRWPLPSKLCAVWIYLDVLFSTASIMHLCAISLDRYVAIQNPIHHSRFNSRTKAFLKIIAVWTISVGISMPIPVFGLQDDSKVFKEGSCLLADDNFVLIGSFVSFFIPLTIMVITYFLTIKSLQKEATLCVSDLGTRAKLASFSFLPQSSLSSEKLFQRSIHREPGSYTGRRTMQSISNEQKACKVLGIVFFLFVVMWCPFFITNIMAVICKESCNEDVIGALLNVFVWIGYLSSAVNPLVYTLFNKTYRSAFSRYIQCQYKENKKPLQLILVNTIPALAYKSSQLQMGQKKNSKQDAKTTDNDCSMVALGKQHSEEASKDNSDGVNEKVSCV
Protocol: Methods and Procedure: Selectivity for the 5-HT2A receptor was assessed by measuring [Ca^2+]; in a CHO recombinant cell line stably expressing the human 5-HT2A receptor, using Fluorometric Imaging Plate Reader (FLIPR TETRA, Molecular Devices).
The day before the experiment, CHO cells were seeded into clear-bottom 384-well plates at a density of 10,000 cells per well, in F-12K Medium (ThermoFisher #21127) supplemented with 10% dialyzed fetal bovine serum, and grown overnight at 37° C., 5% CO2.
On the day of the experiment, the medium was replaced with assay buffer (20 mM HEPES, 145 mM NaCl, 5 mM KCl, 5.5 mM glucose, 1 mM MgCl2, 2 mM CaCl2 and 2.5 mM probenecid, pH 7.4) containing the cytoplasmic Ca^2+ indicator Fluo-4 AM at 2 μM and 0.02% Pluronic F-127. After an incubation of 45-60 minutes at 37° C., 0% CO2, cells were washed by Microplate Washer (BIOTEK) 384 with assay buffer, and the plate was transferred in the FLIPR TETRA. Then, intracellular fluorescence was measured in real time by FLIPR TETRA (excitation wavelength at 470-495 nm, emission wavelength at 515-575 nm), using a dual addition protocol.
In the first addition, test compounds (11 points of 1:4 serial dilution, 0.5% DMSO final) were added to the cell plate to evaluate their effect on intracellular calcium levels. In the event of a response, the signal was elaborated for the determination of pEC50/EC50 values. […] Inhibition of 5-HT response vs. vehicle effect (0.5% DMSO) was elaborated for the determination of pIC50/IC50 values. […] A CRC of ketanserin was used as the internal antagonist control.

[2] = biological target: T2, CYP2B6 (Homo sapiens, UniProt P20813); assay: CYP450 inhibition, Vivid CYP2B6 Baculosomes, BOMCC substrate; type: in vitro ADME
T2 construct: purchased Life Technologies P3028; host or cells: Baculosomes
T2 sequence (P20813 1-491): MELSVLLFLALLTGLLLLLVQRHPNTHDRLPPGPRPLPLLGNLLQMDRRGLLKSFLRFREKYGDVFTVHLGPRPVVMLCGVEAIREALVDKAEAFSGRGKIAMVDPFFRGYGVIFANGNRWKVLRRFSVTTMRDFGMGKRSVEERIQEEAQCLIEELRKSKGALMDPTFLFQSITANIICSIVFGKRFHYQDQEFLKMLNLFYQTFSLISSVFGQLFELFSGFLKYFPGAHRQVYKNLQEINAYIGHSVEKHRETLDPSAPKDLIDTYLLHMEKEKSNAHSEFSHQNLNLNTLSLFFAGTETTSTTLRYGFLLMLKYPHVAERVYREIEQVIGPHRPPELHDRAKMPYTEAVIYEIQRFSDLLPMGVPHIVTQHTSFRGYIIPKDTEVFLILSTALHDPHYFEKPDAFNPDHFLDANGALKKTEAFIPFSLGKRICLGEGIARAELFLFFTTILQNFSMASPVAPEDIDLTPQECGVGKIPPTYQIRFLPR
Protocol: (§1) Methods and Procedure: The study was performed in agreement with previously described procedures to assure data integrity and adherence to GLP standards. Briefly, recombinant human CYP450 isoenzymes were used to metabolize pro-fluorescent probe substrates to fluorescent products. IC50 values determined from the effect of test compounds on the metabolism of these probe substrates were then used to determine inhibitory potency against CYP450 isoforms.
(§2) The test system was based on a three-step procedure with a “mix and read” format, where PGP-432,TI reaction and reading were performed at 37° C. […] Fluorescence was measured in kinetic mode (1 read/minutes for 10 minutes), and the fluorescence rate was calculated. […]
Next, 10 μL/well from the compound plate was added and incubated for 10 minutes at 37° C. on a plate shaker, while a mixture of Vivid Substrate and Vivid NADP+ in Vivid CYP450 Reaction Buffer was prepared. The reaction was initiated by adding 10 μL/well of the Vivid Substrate and NADP+ mixture, before transferring the plate into the fluorescent plate reader (immediately, within 2 minutes), and fluorescence was monitored every minute for 10 minutes according to the specific protocol. Regarding data analysis, the inhibition effect is expressed as a percentage. […]

[3] = biological target: T3, CYP2C9 (Homo sapiens, UniProt P11712); assay: CYP450 inhibition, fluorescent probe, recombinant microsomes: CYP2C9; type: in vitro ADME
T3 construct: host or cells: recombinant microsomes
T3 sequence (P11712 whole entry): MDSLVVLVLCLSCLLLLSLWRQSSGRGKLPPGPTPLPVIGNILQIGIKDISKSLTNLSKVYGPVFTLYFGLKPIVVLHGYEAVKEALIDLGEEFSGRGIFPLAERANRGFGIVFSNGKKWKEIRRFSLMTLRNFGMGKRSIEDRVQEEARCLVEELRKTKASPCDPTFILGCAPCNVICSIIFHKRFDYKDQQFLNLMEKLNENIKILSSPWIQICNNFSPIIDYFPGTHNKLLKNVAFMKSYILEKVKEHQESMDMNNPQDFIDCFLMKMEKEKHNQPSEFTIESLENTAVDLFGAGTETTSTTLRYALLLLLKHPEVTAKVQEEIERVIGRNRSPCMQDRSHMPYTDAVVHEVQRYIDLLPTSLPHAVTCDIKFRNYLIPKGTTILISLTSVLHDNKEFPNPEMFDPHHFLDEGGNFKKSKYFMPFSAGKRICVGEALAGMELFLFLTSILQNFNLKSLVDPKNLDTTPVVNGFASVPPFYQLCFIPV
Protocol: as §1, §2
Microsomes were added to the buffer prior to the substrate addition. […] For fluorescence measurement, 10 μL/well of the test compounds were transferred from the compound plate to the assay plate using Biomek FX and the appropriate protocol. […]
10 μL/well of the cofactor was then added to the assay plate using the Multidrop before placing the assay plate in the plate reader EnVision to measure fluorescence. […]
Next, 10 μL/well from the compound plate was added and incubated for 10 minutes at 37° C. on a plate shaker, while a mixture of Vivid Substrate and Vivid NADP+ in Vivid CYP450 Reaction Buffer was prepared. […] Regarding data analysis, the inhibition effect is expressed as a percentage. […]

| Structure (SMILES) | EC50 ([1]; agonist mode, CHO cells, calcium response, read-out: 5-HT2A agonist selectivity (pEC50) (converted)) [µM] | EC50 ([1]; antagonist mode, versus serotonin EC80, read-out: 5-HT2A antagonist selectivity (represented as pEC50) (converted)) [µM] | IC50 ([2]; recombinant human CYP2B6) [µM] | IC50 ([3]; recombinant human CYP2C9) [µM] | EC50 ([1]; 5-HT2A agonist selectivity (pEC50), agonist mode, CHO cells, calcium response) [µM] | EC50 ([1]; 5-HT2A antagonist selectivity (represented as pEC50), antagonist mode, versus serotonin EC80) [µM] | IC50 at 10 min ([2]; human, recombinant CYP2B6 Baculosomes, pH 8, probe Vivid BOMCC) [µM] | IC50 at 10 min ([3]; human, recombinant microsomes expressing CYP2C9) [µM] |
| --- | --- | --- | --- | --- | --- | --- | --- | --- |
| Clc1ccc(C23CNC(CO2)C3)cc1Cl (centres unmarked) [522A, 1-(3,4-dichlorophenyl)-2-oxa-5-azabicyclo[2.2.1]heptane] | 50.1 | 3.98 | 41 | > 50 | – | – | – | – |
| CNC(C)Cc1ccc2c(c1)OCO2 (centres unmarked) [MDMA, reference compound] | – | – | – | – | > 50.1 | > 50.1 | 50 | 50 |
